Values joined by “and” are separate entries in the source; they are usually repeats but may differ in a detail not shown here. Equal values may be shown once.
Assays:
[1] = tested on: PBMC from allergic donors; assay: Dual ELISPOT, total IL-5 and IFN-γ response (SFC); type: cell-based, human; details: sum of IFNg and IL-5; one donor per table line
Method: (§1) Spots were counted by computer-assisted image analysis (Zeiss, KS-ELISPOT reader, Munich, Germany).
(§2) Each assay was performed in triplicate. The level of statistical significance was determined with a Student's t-test using the mean of triplicate values of the response against relevant pools or individual peptides versus the response against the DMSO control.

[2] = tested on: PBMC from allergic donors; assay: IL-5 ELISPOT with extract-stimulated short-term lines; type: cell-based, human; details: positive donor/peptide response; one donor per table line
Method: as §1, §2

| Substance | Response (SFC/10^6) Total [1] | Response (SFC/10^6) IL-5 [2] |
| --- | --- | --- |
| 3324.0348 (RAVESYLLAHSDAYN) | 293 SFC/10^6 | 293 SFC/10^6 |
| 3324.0349 (TSVIPAARLFKAFFL) | 427 SFC/10^6 | 427 SFC/10^6 |
| 3324.0350 (DHTNFKYSYSVIEGG) | 413 SFC/10^6 | 413 SFC/10^6 |
| 3324.0351 (YETETTSVIPAARLF) | 403 SFC/10^6 | 403 SFC/10^6 |
| 3324.0354 (GIKYMVIQGEAGAVI) | 350 SFC/10^6 | 350 SFC/10^6 |
| 3324.0355 (DGSVWAQSSSFPQFK) | 1953 SFC/10^6 | 1953 SFC/10^6 |
| 3324.0356 (GLHLGGIKYMVIQGE) | 440 SFC/10^6 | 440 SFC/10^6 |
| 3324.0364 (LSRALNLLGLETDLS) | 167 SFC/10^6 | 167 SFC/10^6 |
| 3324.0522 (IIFSKNLNIKLNMPL) | 863 SFC/10^6 | 863 SFC/10^6 |
| 3324.0525 (DKSMKVTVAFNQFGP) | 323 SFC/10^6 | 323 SFC/10^6 |
| 3324.0529 (MAAVAFLALQLIVMA) | 283 SFC/10^6 | 283 SFC/10^6 |
| 3324.0605 (HFFNHHKVMLLGHDD) | 992 SFC/10^6 | 992 SFC/10^6 |
| 3324.0612 (TISNNHFFNHHKVML) | 542 SFC/10^6 | 542 SFC/10^6 |
| 3324.0619 (GPCLFMRKVSHVILH) | 687 SFC/10^6 | 687 SFC/10^6 |
| 3324.0621 (MRKVSHVILHGLHIH) | 642 SFC/10^6 | 642 SFC/10^6 |
| 3324.0622 (DKSMKVTVAFNQFGP) | 102 SFC/10^6 | 102 SFC/10^6 |
| 3324.0827 (DNGYGYFAANIDLMM) | 53 SFC/10^6 | 53 SFC/10^6 |
| 3324.0835 (QTHSAIAVIIGIKDL) | 317 SFC/10^6 | 317 SFC/10^6 |
| 3324.0838 (LESVKYVQSNGGAIN) | 467 SFC/10^6 | 467 SFC/10^6 |

| Substance | Response (SFC/10^6) Total [1] | Response (SFC/10^6) IL-5 [2] |
| --- | --- | --- |
| 3324.0839 (ARKNFLESVKYVQSN) | 487 SFC/10^6 | 487 SFC/10^6 |
| 3324.0940 (QQYDIKYTWNVPKIA) | 1333 SFC/10^6 | 1333 SFC/10^6 |
| 3324.0960 (SELRRVDIAVVSRKE) | 120 SFC/10^6 | 120 SFC/10^6 |
| 3324.0964 (GGEKISVAKIFAHEK) | 137 SFC/10^6 | 137 SFC/10^6 |
| 3324.0966 (EYWILTAAHCVAGQT) | 203 SFC/10^6 | 203 SFC/10^6 |
| 3324.0967 (IDNDIALIKLKSPMK) | 187 SFC/10^6 | 187 SFC/10^6 |
| 3324.0968 (IRYNSLKHSLGGEKI) | 137 SFC/10^6 | 137 SFC/10^6 |
| 3324.0969 (TLANPILPASPNATI) | 167 SFC/10^6 | 167 SFC/10^6 |
| 3324.0970 (EFDAFVAYHIGARIV) | 123 SFC/10^6 and 763 SFC/10^6 | 123 SFC/10^6 and 763 SFC/10^6 |
| 3324.0972 (LKAATAFMLAWNYGV) | 757 SFC/10^6 | 757 SFC/10^6 |
| 3324.0973 (FEGRLLKAATAFMLA) | 113 SFC/10^6 and 953 SFC/10^6 | 113 SFC/10^6 and 953 SFC/10^6 |
| 3324.0979 (PDDLRSIYSRLHNLN) | 177 SFC/10^6 | 177 SFC/10^6 |
| 3324.0988 (RIYVDIVLNHMTGAQ) | 117 SFC/10^6 | 117 SFC/10^6 |
| 3324.0989 (SIYSRLHNLNKEFFP) | 117 SFC/10^6 | 117 SFC/10^6 |
| 3324.0991 (PRVMSSYFWNQIIKD) | 152 SFC/10^6 | 152 SFC/10^6 |
| 3324.0992 (DALVMIDSHDLRVGH) | 290 SFC/10^6 | 290 SFC/10^6 |
| 3324.0993 (VKFRMIAGQEPVHNW) | 92 SFC/10^6 | 92 SFC/10^6 |
| 3324.0997 (GELALFYLQEQINHF) | 1113 SFC/10^6 | 1113 SFC/10^6 |
| 3324.0998 (FDFLLMERIHEQIKK) | 143 SFC/10^6 | 143 SFC/10^6 |

Source: patent US10918713B2, “Epitopes from allergen proteins and methods and uses for immune response modulation” (LA JOLLA INSTITUTE FOR ALLERGY AND IMMUNOLOGY, priority 2012, dated 2021)
